Assay results as given in paper PMC9847585 (ACS infectious diseases, 2021).
Values after ≈ are worked out from the molar mass of the structure shown. Like-named read-outs stand apart in the source and are kept apart here.

Assays:
tPBP2^H041 [1] = experiment: time-dependent gel-based assay, second-order acylation by Bocillin-FL; type: biochemical, Neisseria gonorrhoeae; conditions: time-course, pH 8.0, room temperature
tPBP2^H041-K361E [2] = experiment: time-dependent gel-based assay, acylation of K361E mutant by Bocillin-FL; type: biochemical, Neisseria gonorrhoeae
N. gonorrhoeae H041 = experiment: minimum inhibitory concentration by agar dilution; type: cell-based, Neisseria gonorrhoeae
tPBP2^H041-K361E [3] = experiment: gel-based competition assay with Bocillin-FL against K361E mutant; type: biochemical, Neisseria gonorrhoeae; conditions: for Fractional Activity: fractional acylation rate of K361E compared to native tPBP2^H041; for K361E k2/Ks: tPBP2^H041-K361E mutant, competition with Bocillin-FL; for reduction in acylation rate against K361E mutant: K361E versus native tPBP2^H041
tPBP2^H041 [4] = experiment: gel-based competition assay with Bocillin-FL, second-order acylation rate; type: biochemical, Neisseria gonorrhoeae
(non-mosaic) PBP2 = conditions: membrane preparations; cited from earlier work
[5] = test system: N. gonorrhoeae strain H041
[6] = cited from earlier work
[7] = whole molecule; cited from earlier work
[8] = test system: wild-type PBP2 (tPBP2^WT); conditions: cited from earlier work
tPBP2^H041 [9] = conditions: cited from earlier work
H041 = conditions: cited from earlier work
[10] = test system: FA19 with mosaic penA gene from H041 (penA41); conditions: allelic exchange; cited from earlier work
[11] = Neisseria gonorrhoeae, H041, 24 h

With `Cc1cc(C)n2c1C=C1C=CC(CCC(=O)Nc3ccc(OCC(=O)N[C@@H]4C(=O)N5[C@@H]4SC(C)(C)[C@@H]5C(=O)[O-])cc3)=[N+]1[B-]2(F)F.[Na+]` [Bocillin-FL] the “second-order acylation rate k2/Ks of Bocillin-FL” value (tPBP2^H041 [1]) was 275 ± 9 M⁻¹ s⁻¹, the “decrease in Bocillin-FL acylation rate against K361E” value (tPBP2^H041-K361E [2]; compared to the native enzyme) was 5 fold and the “second-order acylation rate of Bocillin-FL against K361E” value (tPBP2^H041-K361E [2]; tPBP2^H041-K361E mutant, time-course) was 57 ± 1 M⁻¹ s⁻¹.

With `N[C@@H](C(=O)N[C@@H]1C(=O)N2C(C(=O)O)=C(Cl)CS[C@H]12)c1ccccc1` [cefaclor] the MIC (N. gonorrhoeae H041; [11]) was ≥ 32 mg/L.

Compound `C=CC1=C(C(=O)O)N2C(=O)[C@@H](NC(=O)/C(=N\O)c3csc(N)n3)[C@H]2SC1` [cefdinir] has an MIC (N. gonorrhoeae H041; [11]) of 2 mg/L (≈ 5.06 µM).

With `CO/N=C(\C(=O)N[C@@H]1C(=O)N2C(C(=O)[O-])=C(C[N+]3(C)CCCC3)CS[C@H]12)c1csc(N)n1` [cefepime] the “Fractional Activity” value (tPBP2^H041-K361E [3]) was 0.64 and the “K361E k2/Ks” value (tPBP2^H041-K361E [3]) was 410 ± 130 M⁻¹ s⁻¹.

In the case of `CCN1CCN(C(=O)N[C@@H](C(=O)N[C@@H]2C(=O)N3C(C(=O)O)=C(CSc4nnnn4C)CS[C@H]23)c2ccc(O)cc2)C(=O)C1=O` [cefoperazone], the “acylation rate relative to ceftriaxone (faster)” value (tPBP2^H041 [4]) is given as 7 fold, the “concentration at which bound to PBP2” value ((non-mosaic) PBP2) is given as “less than 10^−3 μg/mL” and the “reduction in acylation rate against K361E mutant” value (tPBP2^H041-K361E [3]) is given as 32 fold. The “Fractional Activity” value (tPBP2^H041-K361E [3]) was 0.03, the “K361E k2/Ks” value (tPBP2^H041-K361E [3]) was 370 ± 60 M⁻¹ s⁻¹ and the MIC (N. gonorrhoeae H041; [11]) was 1 mg/L (≈ 1.55 µM). The culture negativity ([5]; 120 mg/kg TID one day, intraperitoneal, by day 3 post-treatment, n = 9) was 100% and the route of excretion [6] was “primarily biliary”.

`CO[C@@]1(NC(=O)Cc2cccs2)C(=O)N2C(C(=O)O)=C(COC(N)=O)CS[C@@H]21` [cefoxitin] showed an MIC (N. gonorrhoeae H041; 24 hr) of 3 mg/L (≈ 7.02 µM) and an MIC (N. gonorrhoeae H041; [11]) of 4 mg/L (≈ 9.36 µM).

In the case of `Cc1cc(O)c(C(=O)N[C@@H](C(=O)N[C@@H]2C(=O)N3C(C(=O)O)=C(CSc4nnnn4C)CS[C@H]23)c2ccc(O)cc2)cn1` [cefpiramide], the “k2/Ks lower than cefoperazone” value (tPBP2^H041 [4]) was 100 fold.

With `NC(=O)c1cc[n+](CC2=C(C(=O)O)N3C(=O)[C@@H](NC(=O)[C@@H](c4ccccc4)S(=O)(=O)[O-])[C@H]3SC2)cc1` [cefsulodin] the MIC (N. gonorrhoeae H041; [11]) was ≥ 32 mg/L.

In the case of `CCO/N=C(\C(=O)N[C@@H]1C(=O)N2C(C(=O)[O-])=C(Sc3nc(-c4cc[n+](C)cc4)cs3)CS[C@H]12)c1nsc(N)n1` [ceftaroline], the logD7.4 [7] is listed as 1.03.

For `CC(C)(O/N=C(\C(=O)N[C@@H]1C(=O)N2C(C(=O)[O-])=C(C[n+]3ccccc3)CS[C@H]12)c1csc(N)n1)C(=O)O` [ceftazidime], the “Fractional Activity” value (tPBP2^H041-K361E [3]) was 0.70, the “K361E k2/Ks” value (tPBP2^H041-K361E [3]) was 560 ± 180 M⁻¹ s⁻¹ and the MIC (N. gonorrhoeae H041; [11]) was ≥ 32 mg/L.

For `CO/N=C(\C(=O)N[C@@H]1C(=O)N2C(C(=O)O)=C(CSc3nc(=O)c(=O)[nH]n3C)CS[C@H]12)c1csc(N)n1` [ceftriaxone], the “k3 (deacylation rate) of acylated complex” value [8] is given as 2.8e-06 s⁻¹, the “k3 (deacylation rate) of acylated complex” value (tPBP2^H041 [9]) is given as 8.1e-05 s⁻¹ and the “increase in MIC compared to strain FA19” value (H041; H041 versus FA19) is given as 3,000 fold. For the same compound, the MIC (H041; strain H041) was 2 mg/L (≈ 3.61 µM), the “reduction in acylation rate against K361E mutant” value (tPBP2^H041-K361E [3]) was 6 fold and the “Fractional Activity” value (tPBP2^H041-K361E [3]) was 0.17. The “K361E k2/Ks” value (tPBP2^H041-K361E [3]) was 290 ± 70 M⁻¹ s⁻¹, the MIC (N. gonorrhoeae H041; [11]) was 2 mg/L (≈ 3.61 µM) and the route of excretion [6] was “primarily renal”. The “increase in MIC on replacing wild-type penA in FA19 with penA41” value [10] was 570 fold.

In the case of `CC1=C(C(=O)O)N2C(=O)[C@@H](NC(=O)[C@H](N)c3ccccc3)[C@H]2SC1` [cephalexin], the MIC (N. gonorrhoeae H041; [11]) was ≥ 32 mg/L.

In the case of `CC(=O)OCC1=C(C(=O)O)N2C(=O)[C@@H](NC(=O)Cc3cccs3)[C@H]2SC1` [cephalothin], the MIC (N. gonorrhoeae H041; [11]) was ≥ 32 mg/L.

`CNC(C)C1CCC(N)C(OC2C(N)CC(N)C(OC3OCC(C)(O)C(NC)C3O)C2O)O1` (stereo not shown) [gentamicin] showed a culture negativity ([5]; 48 mg/kg once a day for 5 days (5QD), by day 4 after initiation of treatment, n = 8) of 100% and a mean time-to-clearance ([5]; 48 mg/kg once a day for 5 days (5QD), n = 8) of 3.1 days.
